According to patent US9187480B2, “Peripherally restricted diphenyl purine derivatives” (RESEARCH TRIANGLE INSTITUTE, priority 2012, dated 2015):

Experiments:
[1] = biological target: T1, CB1 (Homo sapiens (Human), UniProt P21554); assay: Displacement of [3H]CP55940 in membranes of CHO-K1 cells over-expressing CB1;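 on all read-outs here: reported values are averages of 3-6 independent measurements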; conditions: for Binding Selectivity using CP55940 Displacement: CB1 versus CB2; for Ki: read-out: Ki (nM) v. [3H]CP55940 at CB1, radioligand [3H]CP55940, CHO-K1 membranes
T1 sequence (P21554 whole entry): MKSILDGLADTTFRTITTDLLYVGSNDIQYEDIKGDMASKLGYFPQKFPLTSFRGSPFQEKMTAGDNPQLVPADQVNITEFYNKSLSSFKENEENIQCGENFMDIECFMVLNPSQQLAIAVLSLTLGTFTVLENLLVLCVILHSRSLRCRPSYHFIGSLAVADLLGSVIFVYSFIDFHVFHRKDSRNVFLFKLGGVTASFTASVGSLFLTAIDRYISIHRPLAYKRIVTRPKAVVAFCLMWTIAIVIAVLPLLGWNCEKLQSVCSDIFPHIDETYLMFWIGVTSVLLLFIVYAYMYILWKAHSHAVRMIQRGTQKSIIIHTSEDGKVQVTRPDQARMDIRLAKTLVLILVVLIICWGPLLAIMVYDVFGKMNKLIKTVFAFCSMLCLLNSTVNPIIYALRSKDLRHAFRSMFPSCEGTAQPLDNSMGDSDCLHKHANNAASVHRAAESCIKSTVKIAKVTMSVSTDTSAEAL
Description: Further characterization of select compounds was performed using radioligand displacement of [3H]1 and equilibrium dissociation constant (Ki) values were determined. Selectivity of these compounds at CB1 versus CB2 was also determined by obtaining Ki values at either receptor using displacement of [3H]CP55940 in membranes of CHO-K1 cells over-expressing either receptor. Data reported are average values from 3-6 measurements.
Selectivity against the CB2 receptor was determined by comparing the compound displacement of radiolabeled CP55940, which is a cannabinoid known to act as a full agonist at both CB1 and CB2 receptors.

[2] = biological target: T1, CB1; assay: CB1 activated Gαq16-coupled intracellular calcium mobilization assay in CHO-K1 cells; format: cell-based; conditions: apparent affinity (Ke)
[3] = biological target: T1, CB1; assay: Radioligand displacement of [3H]SR141716 at CB1; format: binding; conditions: radioligand [3H]SR141716; read-out: Ki (nM) v. [3H]SR141716 at CB1
[4] = system: MDCK-MDR; assay: MDCK-MDR transport (apical to basal); format: in vitro ADME
[5] = biological target: CB2 (Homo sapiens (Human), UniProt P34972); assay: Displacement of [3H]CP55940 in membranes of CHO-K1 cells over-expressing CB2; format: binding; conditions: radioligand [3H]CP55940, CHO-K1 membranes; read-out: Ki (nM) v. [3H]CP55940 at CB2
CB2, sequence (P34972 whole entry): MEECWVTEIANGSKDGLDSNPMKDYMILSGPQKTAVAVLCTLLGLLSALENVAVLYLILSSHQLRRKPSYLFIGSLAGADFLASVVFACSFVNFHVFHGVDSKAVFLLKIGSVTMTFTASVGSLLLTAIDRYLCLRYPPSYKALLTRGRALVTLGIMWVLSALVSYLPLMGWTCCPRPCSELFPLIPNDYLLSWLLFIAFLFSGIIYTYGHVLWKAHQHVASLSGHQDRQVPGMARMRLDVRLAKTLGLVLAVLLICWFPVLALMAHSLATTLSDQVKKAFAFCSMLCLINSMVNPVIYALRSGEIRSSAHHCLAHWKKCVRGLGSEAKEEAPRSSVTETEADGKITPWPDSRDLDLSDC

[6] = Brain penetration / plasma and brain levels after oral dosing in SD rats; format: in vivo, Sprague-Dawley (SD) rats; conditions: Sprague-Dawley, rat, oral 10 mg/kg
Description: However, unlike otenabant, this sulfonamide is a peripherally selective compound. […] Select compounds were chosen for study to determine penetration into the CNS. Selected compounds were dosed orally at 10 mg/kg in SD rats. Brain and plasma samples were collected at 1, 2, 4, and 24 hours post dose and samples were analyzed by MS (Table 2, below). Since unperfused brains were used and the blood volume in unperfused brains is approximately 4%, a brain to plasma level of ≦0.04 represents no discernible penetration into the CNS.

SMILES	Binding Selectivity using CP55940 Displacement [1]	Ki [1] [nM]	Ke (nM) at CB1 [2] [nM]	Ki [3] [nM]	% MDCK-MDR transport (Apical to Basal) [4] [%]	Ki [5] [nM]	Kp ([6]; brain and plasma, range over sampling times, read-out: brain to plasma ratios)	Cmax ([6]; in vivo) [ng/g]
CS(=O)(=O)NCC1CCC(CNc2ncnc3c2nc(-c2ccccc2Cl)n3-c2ccc(Cl)cc2)CC1 (stereo not shown)	8.6	258	201.00	44.5	>50	2230		
NS(=O)(=O)NCC1CCC(CNc2ncnc3c2nc(-c2ccccc2Cl)n3-c2ccc(Cl)cc2)CC1 (stereo not shown)	30.2	355	549.0	94.5		10700		
CS(=O)(=O)NC1(c2ccccc2)CCN(c2ncnc3c2nc(-c2ccccc2Cl)n3-c2ccc(Cl)cc2)CC1 [N-{1-[8-(2-Chlorophenyl)-9-(4-chlorophenyl)-9H-purin-6-yl]-4-phenylpiperidin-4-yl}methanesulfonamide]	153	6.21			<1	948	0.05 to 0.11	1650
O=S1(=O)CCN(c2ncnc3c2nc(-c2ccccc2Cl)n3-c2ccc(Cl)cc2)CC1 [4-[8-(2-Chlorophenyl)-9-(4-chlorophenyl)-9H-purin-6-yl]-1λ^6,4-thiomorpholine-1,1-dione]	26.0	32.1	159.00	16.8		834		
NC(=O)C1(c2ccccc2)CCN(c2ncnc3c2nc(-c2ccccc2Cl)n3-c2ccc(Cl)cc2)CC1	3076.5	1.79	9	0.28	5.6 ± 2.4	5510		
